Earlier results as cited in patent US20250302745A1, “COMPOSITIONS COMPRISING VANCOMYCIN” (Arecor Limited, priority 2022, published 2025).

System: animal
Conditions: excipients of VancoReady; black box warning

finding in animal reproductive studies	Molecule
cause fetal malformations	CC(=O)N[C@H](C)C(=O)O [N-acetyl-D-alanine]
cause fetal malformations	PEG400
